How the values were obtained:
[1] = test system: neonatal rat cardiomyocytes; assay: Fatty acid oxidation (14CO2 release from 14C-palmitate) in rat primary cardiomyocytes treated with DGAT1 inhibitor; conditions: 1 μM, 2 hr
Method: Neonatal Rat Ventricular Myocytes (NRVM's) were extracted from 1-3 day old Sprague Dawley rat pups. […] Both the right and left ventricles were digested in CBHHF media containing 0.2% Trypsin, 100 U Penn-Strep and DNAse II. […] Fibroblasts were separated from the myocytes by preplating for 30 min. […] Myocytes were then collected and cultured in MEM/5% FBS/Pen-Strep/BrDU/L-Gln overnight at 37 C, 5.0% CO2 at a confluency of 75-80% (1.8×10^6 cells per well of a 6 well plate and 0.9×10^6 cells per well of a 12 well plate). The following day myocyte containing plates were assayed for fatty acid oxidation capacity.
Rat primary cardiomyocytes were plated in either 6 well plate or 12 well plate. […] The sample was counted on a beta scintillation counter after resting for at least 2 hours. […]
Primary rat cardiomyocytes were incubated with 1 μM {4-[4-(4-Amino-7,7-dimethyl-7H-pyrimido[4,5-b][1,4]oxazin-6-yl)-phenyl]-cyclohexyl}-acetic acid for 2 hr. The cells were then incubated with ^14C-labeled palmitate and liberated ^14CO2 was determined as described. […]
Primary rat cardiomyocytes were incubated with 1 μM {4-[4-(4-Amino-7,7-dimethyl-7H-pyrimido[4,5-b][1,4]oxazin-6-yl)-phenyl]-cyclohexyl}-acetic acid for 2 hr. The cells were then incubated with ^14C-labeled palmitate, with 0.5 mM glucose, and liberated ^14CO2 was determined as described. […]

Structure (SMILES) | fatty acid oxidation in cardiomyocytes in presence of glucose ([1]; 0.5 mM glucose, FIG. 3, p<0.05) | decrease in the ability of cells to oxidize [14C]palmitate ([1]; absence of glucose, FIG. 2, p<0.05) [%] | melting point [°C]
CC1(C)Oc2ncnc(N)c2N=C1c1ccc(C2CCC(CC(=O)O)CC2)cc1 (stereo not drawn) | robust decrease in fatty acid oxidation | ~15 | 
Cc1ccc(NC(=O)c2ccc3c(c2)C(=O)N(c2c(C)cccc2C)C3=O)cc1C |  |  | 223 to 225
